Data published in ChEMBL document CHEMBL1201862, “PubChem BioAssay data set” (2004).
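These data come from cells grown in 96-well plates and exposed to compound for 48 hours at five concentrations. GI50 marks 50% less growth.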 Calls of active or inactive are those of the source. No stated cut-off is given here; in the data, active = GI50 up to about 1.1 µM and inactive = higher.

Assays:
Experiment in all cases: growth of human tumour cells (NCI), 48 h
KM12 = test system: KM12
K562 = test system: K562
KM-20L2 = test system: KM-20L2
SF-539 = test system: SF-539
OVCAR-5 = test system: OVCAR-5
RXF 631 = test system: RXF 631
SK-MEL-28 = test system: SK-MEL-28
U-251 = test system: U-251
NCI-H23 = test system: NCI-H23
ACHN = test system: ACHN
LXFL 529 = test system: LXFL 529
COLO 205 = test system: COLO 205
SW-620 = test system: SW-620
HCC 2998 = test system: HCC 2998
HCT-116 = test system: HCT-116
UACC-257 = test system: UACC-257
SF-295 = test system: SF-295
MOLT-4 = test system: MOLT-4
CCRF-CEM = test system: CCRF-CEM
M14 = test system: M14
TK-10 = test system: TK-10
HOP-92 = test system: HOP-92
LOX IMVI = test system: LOX IMVI
IGROV-1 = test system: IGROV-1
SF-268 = test system: SF-268
XF498 = test system: XF498
HCT-15 = test system: HCT-15
RPMI-8226 = test system: RPMI-8226
OVCAR-4 = test system: OVCAR-4
A549 = test system: A549
A498 = test system: A498
UACC-62 = test system: UACC-62
NCI-H522 = test system: NCI-H522
786-0 = test system: 786-0
DLD-1 = test system: DLD-1
DMS-114 = test system: DMS-114
SN12C = test system: SN12C
OVCAR-8 = test system: OVCAR-8
SK-OV-3 = test system: SK-OV-3
SK-MEL-5 = test system: SK-MEL-5
HOP-62 = test system: HOP-62
SNB-75 = test system: SNB-75
OVCAR-3 = test system: OVCAR-3
UO-31 = test system: UO-31
DMS-273 = test system: DMS-273
HL-60 = test system: HL-60
NCI-H460 = test system: NCI-H460
Malme-3M = test system: Malme-3M
HT-29 = test system: HT-29
EKVX = test system: EKVX
RXF 393 = test system: RXF 393
SK-MEL-2 = test system: SK-MEL-2
M19-MEL = test system: M19-MEL
NCI-H226 = test system: NCI-H226
SNB-78 = test system: SNB-78
SR = test system: SR
SNB-19 = test system: SNB-19

O=C1C=CC2(C=C1)CCNC1=C2C(=O)c2ccccc2C1=O
GI50 (KM12): > 100 µM (inactive)
GI50 (K562): > 100 µM (inactive)
GI50 (KM-20L2): > 100 µM (inactive)
GI50 (SF-539): > 100 µM (inactive)
GI50 (OVCAR-5): > 100 µM (inactive)
GI50 (RXF 631): > 100 µM (inactive)
GI50 (SK-MEL-28): > 100 µM (inactive)
GI50 (U-251): > 100 µM (inactive)
GI50 (NCI-H23): > 100 µM (inactive)
GI50 (ACHN): > 100 µM (inactive)
GI50 (LXFL 529): > 100 µM (inactive)
GI50 (COLO 205): > 100 µM (inactive)
GI50 (SW-620): > 100 µM (inactive)
GI50 (HCC 2998): > 100 µM (inactive)
GI50 (HCT-116): > 100 µM (inactive)
GI50 (UACC-257): 50 µM (inactive)
GI50 (SF-295): > 100 µM (inactive)
GI50 (MOLT-4): > 100 µM (inactive)
GI50 (CCRF-CEM): > 100 µM (inactive)
GI50 (M14): > 100 µM (inactive)
GI50 (TK-10): > 100 µM (inactive)
GI50 (HOP-92): > 100 µM (inactive)
GI50 (LOX IMVI): > 100 µM (inactive)
GI50 (IGROV-1): > 100 µM (inactive)
GI50 (SF-268): > 100 µM (inactive)
GI50 (XF498): > 100 µM (inactive)
GI50 (HCT-15): > 100 µM
GI50 (RPMI-8226): > 100 µM (inactive)
GI50 (OVCAR-4): > 100 µM (inactive)
GI50 (A549): > 100 µM (inactive)
GI50 (A498): > 100 µM (inactive)
GI50 (UACC-62): > 100 µM (inactive)
GI50 (NCI-H522): > 100 µM (inactive)
GI50 (786-0): > 100 µM (inactive)
GI50 (DLD-1): > 100 µM (inactive)
GI50 (DMS-114): > 100 µM (inactive)
GI50 (SN12C): > 100 µM (inactive)
GI50 (OVCAR-8): > 100 µM (inactive)
GI50 (SK-OV-3): > 100 µM (inactive)
GI50 (SK-MEL-5): 56.9 µM (inactive)
GI50 (HOP-62): > 100 µM (inactive)
GI50 (SNB-75): 30.8 µM (inactive)
GI50 (OVCAR-3): 28.5 µM (inactive)
GI50 (UO-31): > 100 µM (inactive)
GI50 (DMS-273): > 100 µM (inactive)
GI50 (HL-60): > 100 µM (inactive)
GI50 (NCI-H460): > 100 µM (inactive)
GI50 (Malme-3M): > 100 µM (inactive)
GI50 (HT-29): > 100 µM (inactive)
GI50 (EKVX): > 100 µM (inactive)
GI50 (RXF 393): > 100 µM (inactive)
GI50 (SK-MEL-2): > 100 µM (inactive)
GI50 (M19-MEL): 32.5 µM (inactive)
GI50 (NCI-H226): > 100 µM (inactive)

N/N=C(\c1nc2ccc(Cl)cc2nc1O)C(O)c1ccc(Cl)c(Cl)c1 (stereo not given)
GI50 (KM12): 70.5 µM (inactive)
GI50 (K562): > 100 µM (inactive)
GI50 (KM-20L2): > 100 µM (inactive)
GI50 (SF-539): > 100 µM (inactive)
GI50 (OVCAR-5): > 100 µM (inactive)
GI50 (RXF 631): > 100 µM (inactive)
GI50 (SK-MEL-28): > 100 µM (inactive)
GI50 (U-251): > 100 µM (inactive)
GI50 (NCI-H23): > 100 µM (inactive)
GI50 (ACHN): > 100 µM (inactive)
GI50 (LXFL 529): > 100 µM (inactive)
GI50 (COLO 205): 88.3 µM (inactive)
GI50 (SW-620): 59.2 µM (inactive)
GI50 (HCC 2998): > 100 µM (inactive)
GI50 (HCT-116): 48.1 µM (inactive)
GI50 (UACC-257): > 100 µM (inactive)
GI50 (SF-295): > 100 µM (inactive)
GI50 (SNB-78): > 100 µM (inactive)
GI50 (MOLT-4): > 100 µM (inactive)
GI50 (CCRF-CEM): > 100 µM (inactive)
GI50 (M14): > 100 µM (inactive)
GI50 (TK-10): > 100 µM (inactive)
GI50 (HOP-92): > 100 µM (inactive)
GI50 (LOX IMVI): > 100 µM (inactive)
GI50 (SR): > 100 µM (inactive)
GI50 (IGROV-1): > 100 µM (inactive)
GI50 (SF-268): > 100 µM (inactive)
GI50 (XF498): > 100 µM (inactive)
GI50 (SNB-19): > 100 µM (inactive)
GI50 (HCT-15): > 100 µM
GI50 (RPMI-8226): > 100 µM (inactive)
GI50 (OVCAR-4): 29.1 µM (inactive)
GI50 (A549): > 100 µM (inactive)
GI50 (UACC-62): > 100 µM (inactive)
GI50 (NCI-H522): > 100 µM (inactive)
GI50 (786-0): 80.7 µM (inactive)
GI50 (DLD-1): 46.7 µM (inactive)
GI50 (DMS-114): > 100 µM (inactive)
GI50 (SN12C): > 100 µM (inactive)
GI50 (OVCAR-8): 72.6 µM (inactive)
GI50 (SK-OV-3): > 100 µM (inactive)
GI50 (SK-MEL-5): > 100 µM (inactive)
GI50 (HOP-62): > 100 µM (inactive)
GI50 (SNB-75): 31 µM (inactive)
GI50 (OVCAR-3): > 100 µM (inactive)
GI50 (UO-31): > 100 µM (inactive)
GI50 (DMS-273): 81.1 µM (inactive)
GI50 (HL-60): > 100 µM (inactive)
GI50 (NCI-H460): > 100 µM (inactive)
GI50 (Malme-3M): > 100 µM (inactive)
GI50 (HT-29): > 100 µM (inactive)
GI50 (EKVX): > 100 µM (inactive)
GI50 (RXF 393): > 100 µM (inactive)
GI50 (SK-MEL-2): > 100 µM (inactive)
GI50 (M19-MEL): > 100 µM (inactive)
GI50 (NCI-H226): > 100 µM (inactive)
